“Also recorded” adds a separate entry of the source.
Legend:
GST-hFXR-LBD = biological target: T1, GST-hFXR-LBD (Homo sapiens, UniProt Q96RI1); experiment: FXR TR-FRET binding assay; details: Table 3; ratio fits the TR-FRET binding IC50
T1 sequence (Q96RI1 262-486 limits assumed): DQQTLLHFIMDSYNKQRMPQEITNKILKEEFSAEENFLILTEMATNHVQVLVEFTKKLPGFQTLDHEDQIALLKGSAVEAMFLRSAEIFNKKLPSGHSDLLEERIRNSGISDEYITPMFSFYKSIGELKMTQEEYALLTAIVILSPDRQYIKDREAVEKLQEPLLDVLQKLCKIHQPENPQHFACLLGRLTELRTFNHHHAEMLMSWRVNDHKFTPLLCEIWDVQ

FXR [1] = biological target: T2, FXR (Homo sapiens, UniProt Q96RI1); experiment: GeneBLAzer FXR cell-based agonistic; details: compound alone, without GW4064; data not shown
T2 sequence (Q96RI1 262-486 limits assumed): T1 sequence (Q96RI1 262-486 limits assumed)

[2] = tested on: GeneBLAzer FXR-UAS-bla HEK 293T cells; experiment: Cytotoxicity assay in GeneBLAzer FXR cells; format: cell-based, human
FXR [3] = biological target: T2, FXR; experiment: GeneBLAzer FXR cell-based antagonistic; details: data not shown

Structure (SMILES)	activity against FXR at 1 µM (FXR [3])	further results
Cc1ccc(-c2nn(CC3CC3)cc2C(=O)Nc2ccc(C)c(S(=O)(=O)N3CCOCC3)c2)cc1 [Compound 4i, 1-(Cyclopropylmethyl)-N-(4-methyl-3-(morpholinosulfonyl)phenyl)-3-(p-tolyl)-1H-pyrazole-4-carboxamide]		fold decreased activity for FXR as compared to E16 (GST-hFXR-LBD): 2 fold
COc1cccc(Cn2cc(C(=O)Nc3ccc(C)c(S(=O)(=O)N4CCOCC4)c3)c(-c3ccc(C)cc3)n2)c1 [Compound 4j, 1-(3-Methoxybenzyl)-N-(4-methyl-3-(morpholinosulfonyl)phenyl)-3-(p-tolyl)-1H-pyrazole-4-carboxamide]		FXR agonistic activity (FXR [1]): no detectable; also recorded: no FXR agonistic activity; also recorded: does not have any; cytotoxicity [2]: no detectable; also recorded: no cytotoxicity; also recorded: does not have any
Cc1ccc(-c2nn(C(C)C)cc2C(=O)N(C)c2ccc(C)c(S(=O)(=O)N3CCOCC3)c2)cc1 [Compound 8a, 1-Isopropyl-N-methyl-N-(4-methyl-3-(morpholinosulfonyl)phenyl)-3-(p-tolyl)-1H-pyrazole-4-carboxamide]	essentially inactive	
COc1cccc(Cn2cc(C(=O)N(C)c3ccc(C)c(S(=O)(=O)N4CCOCC4)c3)c(C(C)C)n2)c1 [Compound 8b, 3-Isopropyl-1-(3-methoxybenzyl)-N-methyl-N-(4-methyl-3-(morpholinosulfonyl)phenyl)-1H-pyrazole-4-carboxamide]	essentially inactive	
COc1cccc(Cn2cc(C(=O)N(C)c3ccc(C)c(S(=O)(=O)N4CCOCC4)c3)c(-c3cccc(OC)c3)n2)c1 [Compound 8c, 1-(3-Methoxybenzyl)-3-(3-methoxyphenyl)-N-methyl-N-(4-methyl-3-(morpholinosulfonyl)phenyl)-1H-pyrazole-4-carboxamide]	essentially inactive	
